From patent publication US20100105680A1, “SUBSTITUTED DIMETHYLCYCLOBUTYL COMPOUNDS, THEIR PREPARATION AND USE IN MEDICAMENTS” (priority 2006, published 2010)

Target: T1, sigma-1 receptor (Cavia porcellus, UniProt Q60492)
T1 construct: guinea pig brains were homogenized; from tissue; host or cells: guinea pig brain membranes
Assay: Sigma-1 receptor binding ([3H]-(+)-pentazocine, brain membranes)
Conditions: [3H]-(+)-pentazocine 0.5 nM, guinea pig brain membranes; for inhibition at 0.01 µM / Percent Inhibition Percent Concentration (μM) 0.0100 SIGMA-1 receptor: compound concentration 0.0100 μM; for inhibition at 0.01 µM: read-out: Percent Inhibition Percent Concentration (μM) 0.0100 SIGMA-1 receptor; for inhibition at 0.1 µM / Percent Inhibition Percent Concentration (μM) 0.1000 SIGMA-1 receptor: compound concentration 0.1000 μM; for inhibition at 0.1 µM: read-out: Percent Inhibition Percent Concentration (μM) 0.1000 SIGMA-1 receptor
Protocol: Brain membrane preparation and binding assays for the sigma-1 receptor were performed as described (DeHaven-Hudkins et al., Characterization of the binding of [^3H]-(+)-pentazocine to recognition sites in guinea pig brain, Eur. J. Pharmacol. 227, 371-378) with some modifications.
In brief, guinea pig brains were homogenized in 10 vols. (w/v) of Tris-HCl 50 mM, 0.32 M sucrose, pH 7.4, with a Kinematica Polytron PT 3000 at 15000 r.p.m. for 30 s. The homogenate was centrifuged at 1000 g for 10 min at 4° C. and the supernatants collected and centrifuged again at 48000 g for 15 min at 4° C. The pellet was resuspended in 10 volumes of Tris-HCl buffer (50 mM, pH 7.4), incubated at 37° C. for 30 min, and centrifuged at 48000 g for 20 min at 4° C. Following this, the pellet was resuspended in fresh Tris-HCl buffer (50 mM, pH 7.4) and stored on ice until use.
Each assay tube contained 10 μL of [^3H]-(+)-pentazocine (final concentration of 0.5 nM), 900 μL of the tissue suspension to a final assay volume of 1 mL and a final tissue concentration of approximately 30 mg tissue net weight/mL. Non-specific binding was defined by addition of a final concentration of […] haloperidol. All tubes were incubated at 37° C. for 150 min before termination of the reaction by rapid filtration over Schleicher & Schuell GF 3362 glass fibre filters [previously soaked in a solution of 0.5% polyethylenimine for at least 1 h]. Filters were then washed with four times with 4 mL of cold Tris-HCl buffer (50 mM, pH 7.4). Following addition of scintillation cocktail, the samples were allowed to equilibrate overnight. The amount of bound radioactivity was determined by liquid scintillation spectrometry using a Wallac Winspectral 1414 liquid scintillation counter. Protein concentrations were determined by the method of Lowry et al. (Protein measurement with the Folin phenol reagent, J. Biol. Chem, 193, 265).
The binding of the compounds of the present invention to sigma-1 receptors was tested as described above.

T1 sequence (Q60492 whole entry): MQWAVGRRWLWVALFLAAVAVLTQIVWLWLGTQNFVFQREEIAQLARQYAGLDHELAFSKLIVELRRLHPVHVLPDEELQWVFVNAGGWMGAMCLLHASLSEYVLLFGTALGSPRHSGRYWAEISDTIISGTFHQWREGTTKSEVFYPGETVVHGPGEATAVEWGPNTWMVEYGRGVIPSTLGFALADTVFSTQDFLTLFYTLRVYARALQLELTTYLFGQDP

| Compound | Ki [nM] | inhibition at 0.01 µM [%] | inhibition at 0.1 µM [%] | Percent Inhibition Percent Concentration (μM) 0.0100 SIGMA-1 receptor [%] | Percent Inhibition Percent Concentration (μM) 0.1000 SIGMA-1 receptor [%] |
| --- | --- | --- | --- | --- | --- |
| C[C@@H]1CN(C[C@@H]2C[C@H](CCO)C2(C)C)C[C@H](C)O1 [compound 23] |  | 27.6 | 70.6 |  |  |
| CC(O)(c1ccccc1)[C@@H]1C[C@H](CCN2CCOCC2)C1(C)C (stereo partly shown) [compound 13] | 1.2 | 77.8 | 95.2 |  |  |
| CC1(C)[C@@H](COCc2ccccc2)C[C@H]1CN1CCN(c2ccccc2)CC1 [compound 9] | 14.6 | 60 | 94.7 |  |  |
| CC1(C)[C@H](CCOCc2ccccc2)C[C@@H]1CN1CCN(c2ccccc2)CC1 [compound 4] |  | 24.1 | 82.2 |  |  |
| CC(O)(c1ccccc1)[C@@H]1C[C@H](CCN2CCCCC2)C1(C)C (stereo partly shown) [compound 14] | 1.9 | 75.6 | 97.5 |  |  |
| CN1CCN(C[C@H]2C[C@@H](CCOCc3ccccc3)C2(C)C)CC1 [compound 5] |  | 42.5 | 92.4 |  |  |
| CC1(C)[C@@H](CCO)C[C@H]1CN1CCC(c2ccccc2)CC1 [compound 22] | 1.4 | 91.9 | 96.8 |  |  |
| CC1(C)[C@@H](CCO)C[C@H]1CN1CCCCC1 [compound 17] | 41.8 | 45.2 | 61.5 |  |  |
| CC1(C)[C@@H](CCOCc2ccccc2)C[C@H]1CN1CCN(c2ccccc2)CC1 [compound 36] | 47 | 65.8 | 88.3 |  |  |
| CC1(C)[C@@H](CCOc2ccccc2)C[C@H]1CN1CCOCC1 [compound 15] | 4.2 | 93.6 | 95.4 |  |  |
| CC1(C)[C@H](CCO)C[C@@H]1CN1CCCCC1 [compound 18] |  | -21.4 | 44.8 |  |  |
| CC1(C)[C@@H](CCOCc2ccccc2)C[C@H]1CN1CCN(c2ccccc2)CC1.O=C(O)C(=O)O [compound 37] | 33.5 |  |  | 79.7 | 98.8 |
| CN1CCN(C[C@@H]2C[C@H](CCOCc3ccccc3)C2(C)C)CC1.O=C(O)C(=O)O [compound 35] | 5.3 |  |  | 76.7 | 95.9 |
| CC(O)[C@@H]1C[C@H](CCN2CCOCC2)C1(C)C (stereo partly shown) [compound 11] |  | -8.3 | 44.4 |  |  |

More lines, main results first:

| Ki [nM] | inhibition at 0.01 µM [%] | inhibition at 0.1 µM [%] | Compound | Percent Inhibition Percent Concentration (μM) 0.0100 SIGMA-1 receptor [%] | Percent Inhibition Percent Concentration (μM) 0.1000 SIGMA-1 receptor [%] |
| --- | --- | --- | --- | --- | --- |
| 3.3 | 69.7 | 92 | CN(Cc1ccccc1)CC1CC(CCO)C1(C)C (stereo not shown) [compound 24] |  |  |
| 0.6 ± 0.2 | 85.3 | 89.8 | CC1(C)[C@@H](CCOCc2ccccc2)C[C@H]1CN1CCCC1 [compound 33] |  |  |
| 8.4 | 94.1 | 95.8 | CC1(C)[C@H](COCc2ccccc2)C[C@@H]1CCN1CCOCC1 [compound 39] |  |  |
| 4.9 | 45.7 | 92 | CC1(C)[C@@H](CCn2cccn2)C[C@H]1CN1CCCCC1 [compound 49] |  |  |
|  | 36.1 | 81.9 | CC1(C)[C@@H](CCN2CCC(c3ccccc3)CC2)C[C@H]1CN1CCCCC1 [compound 51] |  |  |
|  | -6.6 | 73.6 | CC1(C)[C@@H](CCn2ccc3c2CCCC3=O)C[C@H]1CN1CCCCC1 [compound 53] |  |  |
| 3.6 | 94.6 | 99.1 | C[C@@H]1CN(C[C@@H]2C[C@H](CCOCc3ccccc3)C2(C)C)C[C@H](C)O1 [compound 32] |  |  |
| 13.5 | 50.2 | 83 | CC1(C)[C@@H](CCn2ccc3c2CCCC3=O)C[C@H]1CN1CCOCC1 [compound 46] |  |  |
|  | 41.7 | 82.8 | CC1(C)[C@@H](CCn2cccn2)C[C@H]1CN1CCOCC1 [compound 44] |  |  |
| 1.2 | 83 | 98.3 | CC1(C)[C@H](CO)C[C@@H]1CCN1CCC(Cc2ccccc2)CC1 [compound 25] |  |  |
